In patent US7435832B2, “Crystals including a malic acid salt of a 3-pyrrole substituted 2-indolinone, and compositions thereof” (Pharmacia & Upjohn Company, priority 2001, dated 2008):
Where a name gives a salt, the structure may show the parent alone.

Assays:
Assay type in all cases: physicochemical
[1] = Solid state stability study of bulk crystals (HPLC analysis, PXRD); details: for Purity (Area %) / Total Impurities (Area %): HPLC
Source text: As referred to in the present application, “stable” in bulk drug stability tests means that at least about 97% by weight, preferably at least about 98% by weight, and more preferably at least about 99% by weight of the bulk drug remains unchanged after storage under the indicated conditions for the indicated time.
A solid state stability study of Crystal Form I of the L-malic acid salt of N-[2-(diethylamino)ethyl]-5-[(5-fluoro-1,2-dihydro-2-oxo-3H-indol-3-ylidene)methyl]-2,4-dimethyl-1H-pyrrole-3-carboxamide was also conducted (Table 2).

[2] = Dynamic moisture sorption gravimetry (DMSG), hygroscopicity; details: for Water absorbed (moisture sorption): across the 0-90% relative humidity range, 25° C.
Description: X-ray diffraction (XRD) patterns were measured on a Scintag X2 diffractometer (Thermo ARL, Ecublens, Switzerland) equipped with a theta-theta goniometer. Melting points were determined using a TA Instruments 2920 differential scanning calorimeter (TA Instruments, New Castle, Del.) with standard crimped pans and a heating rate of 10° C./minute. Hygroscopicity was assessed by dynamic moisture sorption gravimetry (DMSG) using a Controlled Atmosphere Microbalance (Pharmacia Corp., Kalamazoo, Mich.). All chemicals used are available from Aldrich Chemical Co., Milwaukee, Wis., unless otherwise specified. N-[2-(diethylamino)ethyl]-5-[(5-fluoro-1,2-dihydro-2-oxo-3H-indol-3-ylidene)methyl]-2,4-dimethyl-1H-pyrrole-3-carboxamide was prepared as the free base by a procedure similar to that described in Example 80 of PCT International Publication No. WO 01/60814 (Tang et al.).
Dynamic Moisture Sorption Gravimetry (DMSG). DMSG isotherms were collected on the variable temperature controlled atmosphere microbalance. Approximately 10 mg samples were used in the balance. Samples were run as received. The humidity was sequentially set between 0 and 90% relative humidity (RH) in 3% RH steps. The mass was then measured every two minutes. The RH was changed to the next value when the mass of the sample was stable to within 0.5 microgram in 480 seconds. A Visual Basic program was used to control the data collection and export the information to an Excel spreadsheet.

Solubility in water = details: in water at 25° C.
Description: The solubility of Crystal Form I of the L-malic acid salt of N-[2-(diethylamino)ethyl]-5-[(5-fluoro-1,2-dihydro-2-oxo-3H-indol-3-ylidene)methyl]-2,4-dimethyl-1H-pyrrole-3-carboxamide was determined to be 5 mg/mL in water at 25° C.

| Purity (Area %) ([1]; 2 weeks at 60° C./75% RH) | Total Impurities (Area %) ([1]; 2 weeks at 60° C./75% RH) | Purity (Area %) ([1]; 2 weeks at 60° C./ambient RH) | Total Impurities (Area %) ([1]; 2 weeks at 60° C./ambient RH) | Purity (Area %) ([1]; 2 weeks at 80° C./ambient RH) | Total Impurities (Area %) ([1]; 2 weeks at 80° C./ambient RH) | Purity (Area %) ([1]; 4 weeks at 60° C./75% RH) | Total Impurities (Area %) ([1]; 4 weeks at 60° C./75% RH) | Purity (Area %) ([1]; 4 weeks at 60° C./ambient RH) | Total Impurities (Area %) ([1]; 4 weeks at 60° C./ambient RH) | Purity (Area %) ([1]; 4 weeks at 80° C./ambient RH) | Total Impurities (Area %) ([1]; 4 weeks at 80° C./ambient RH) | Purity (Area %) ([1]; Initial) | Total Impurities (Area %) ([1]; Initial) | Degradation after aging ([1]; four weeks at 60° C./ambient RH, 60° C./75% RH and 80° C./ambient RH) | Change in crystal form by powder X-ray diffraction ([1]; two-week stability samples) | Water absorbed (moisture sorption) [2] | solubility (Solubility in water) | Water absorbed upon exposure to humidity ([2]; 80% relative humidity) | Compound |
| --- | --- | --- | --- | --- | --- | --- | --- | --- | --- | --- | --- | --- | --- | --- | --- | --- | --- | --- | --- |
| 99.6 Area % | 1.2 Area % | 98.2 Area % | 1.1 Area % | 99.5 Area % | 1.2 Area % | 100.1 Area % | 2.2 Area % | 100.4 Area % | 1.2 Area % | 98.0 Area % | 3.1 Area % | 99.7 Area % | 1.5 Area % | no significant degradation | no change in crystal form | less than 0.5% | 5000 µg/mL | – | CCN(CC)CCNC(=O)c1c(C)[nH]c(/C=C2\C(=O)Nc3ccc(F)cc32)c1C [Crystal Form I, L-malic acid salt of N-[2-(diethylamino)ethyl]-5-[(5-fluoro-1,2-dihydro-2-oxo-3H-indol-3-ylidene)methyl]-2,4-dimethyl-1H-pyrrole-3-carboxamide] |
| – | – | – | – | – | – | – | – | – | – | – | – | – | – | – | – | over 15% | – | at least 5 % by weight | CCN(CC)CCNC(=O)c1c(C)[nH]c(/C=C2\C(=O)Nc3ccc(F)cc32)c1C [Crystal Form II, L-malic acid salt of N-[2-(diethylamino)ethyl]-5-[(5-fluoro-1,2-dihydro-2-oxo-3H-indol-3-ylidene)methyl]-2,4-dimethyl-1H-pyrrole-3-carboxamide] |
